Converted amounts (≈) assume the structure as drawn. Values belong to the molecule of their own block, whether it stands above or below them.
Columns and labels:
Assay in all cases: ≥ marks a high value that may be exact or a test limit, other limits are often not marked, values filed in µg/mL are converted to µM
[1] = system: Pseudomonas aeruginosa ATCC 27853
[2] = system: Acinetobacter baumannii KCTC 2508
[3] = system: Klebsiella pneumoniae KCTC 2208
[4] = system: Enterococcus faecalis ATCC 4028
[5] = system: Escherichia coli ATCC 25922
[6] = system: Candida albicans ATCC 90028
[7] = system: Staphylococcus aureus ATCC 29213
Candida krusei ATCC 6258 = system: Candida krusei ATCC 6258
[8] = system: Staphylococcus epidermidis ATCC 12228
[9] = system: Enterobacter cloacae ATCC 13047
[10] = system: Candida glabrata ATCC 90030
[11] = system: Staphylococcus aureus 215
[12] = system: Bacillus subtilis ATCC 6051
Escherichia coli W3110 = system: Escherichia coli W3110
Enterococcus faecalis A4 = system: Enterococcus faecalis A4
[13] = system: Pseudomonas aeruginosa PA14
Enterococcus faecium = system: Enterococcus faecium
[14] = system: Bacillus amyloliquefaciens ATCC 23842
Staphylococcus aureus MR = system: Staphylococcus aureus MR
[15] = system: Acinetobacter baumannii AB5075
[16] = system: Enterococcus faecium 5F-10
[17] = system: Bacillus cereus ATCC 14579
[18] = system: Bacillus licheniformis ATCC 14580
Escherichia coli NDM = system: Escherichia coli NDM
[19] = system: Enterococcus faecalis 1F-1
Staphylococcus aureus = system: Staphylococcus aureus
Vibrio alginolyticus = system: Vibrio alginolyticus
Escherichia coli = system: Escherichia coli
Vibrio fluvialis = system: Vibrio fluvialis
Streptococcus pyogenes = system: Streptococcus pyogenes
Aeromonas hydrophila = system: Aeromonas hydrophila
Vibrio parahaemolyticus = system: Vibrio parahaemolyticus
[20] = system: Pseudomonas aeruginosa Q12-0535
Escherichia coli K-12 = system: Escherichia coli K-12
[21] = system: Acinetobacter baumannii Q13-0717
[22] = system: Staphylococcus aureus RN4220
[23] = system: Salmonella typhimurium SL1344
[24] = system: Klebsiella pneumoniae Q14-0095
[25] = system: Enterococcus faecalis JH-2-2
[26] = system: Acinetobacter baumannii Q12-0867
[27] = system: Pseudomonas aeruginosa Q14-0890
Campylobacter jejuni = system: Campylobacter jejuni
[28] = system: Acinetobacter baumannii Q12-0809
[29] = system: Pseudomonas aeruginosa PAO1
[30] = system: Klebsiella pneumoniae NCTC 13442
[31] = system: Campylobacter jejuni NCTC 11351
[32] = system: Pseudomonas aeruginosa Q14-0208
[33] = system: Staphylococcus aureus Q14-0320
[34] = system: Listeria monocytogenes NCTC 11994
[35] = system: Staphylococcus aureus MRSA-15
[36] = system: Staphylococcus aureus NCTC 12493
[37] = system: Klebsiella pneumoniae ATCC 700603

MIC [1]: 4 µM (≈ 11.7 µg/mL)
MIC [2]: 4 µM (≈ 11.7 µg/mL)
MIC [3]: 8 µM (≈ 23.5 µg/mL)
SMILES: CC[C@H](C)[C@H](N)C(=O)N[C@@H](C)C(=O)N[C@@H](CCCN=C(N)N)C(=O)N[C@@H](CCCN=C(N)N)C(=O)N[C@@H](C)C(=O)N[C@@H](CC(C)C)C(=O)N[C@@H](CCCCN)C(=O)N[C@@H](C)C(=O)N[C@@H](CO)C(=O)N[C@@H](CC(C)C)C(=O)N[C@@H](CCCN=C(N)N)C(=O)N[C@@H](C)C(=O)N[C@@H](CCCN=C(N)N)C(=O)N[C@@H](Cc1cnc[nH]1)C(=O)N[C@H](C(=O)N[C@H](C(=O)N1CCC[C@H]1C(=O)N[C@@H](CCC(N)=O)C(=O)N[C@@H](CS)C(=O)N[C@@H](CCCCN)C(=O)N[C@@H](CCCCN)C(=O)N[C@@H](Cc1ccccc1)C(=O)NCC(=O)N[C@@H](CCCN=C(N)N)C(=O)N[C@@H](CCCN=C(N)N)C(N)=O)[C@@H](C)CC)[C@@H](C)O [IARRALKASLRARHTIPQCKKFGRR]

MIC [4]: 1.17 µM (≈ 2.28 µg/mL)
MIC [5]: 2.34 µM (≈ 4.56 µg/mL)
MIC [6]: 4.69 µM (≈ 9.14 µg/mL)
MIC [7]: 2.34 µM (≈ 4.56 µg/mL)
MIC (Candida krusei ATCC 6258): 9.38 µM (≈ 18.3 µg/mL)
MIC [8]: 9.38 µM (≈ 18.3 µg/mL)
MIC [9]: 9.38 µM (≈ 18.3 µg/mL)
MIC [1]: 1.17 µM (≈ 2.28 µg/mL)
MIC [10]: 9.38 µM (≈ 18.3 µg/mL)
SMILES: CC[C@H](C)[C@H](NC(=O)[C@H](CC(C)C)NC(=O)CNC(=O)[C@H](CCCCN)NC(=O)[C@@H](NC(=O)[C@H](CC(C)C)NC(=O)[C@H](CCCCN)NC(=O)[C@@H]1CCCN1C(=O)[C@@H](NC(=O)[C@H](CC(C)C)NC(=O)[C@H](CCCCN)NC(=O)[C@H](Cc1ccccc1)NC(=O)[C@@H](N)Cc1ccccc1)[C@@H](C)CC)C(C)C)C(=O)N[C@@H](CO)C(=O)N[C@@H](C)C(=O)N[C@@H](Cc1ccccc1)C(=O)N[C@@H](CCCCN)C(N)=O [FFKLIPKLVKGLISAFK]

MIC [11]: 12.6 µM (≈ 32 µg/mL)
MIC [12]: 25.2 µM (≈ 64 µg/mL)
MIC (Escherichia coli W3110): 16 µM (≈ 40.6 µg/mL)
MIC (Enterococcus faecalis A4): 3.15 µM (≈ 8 µg/mL)
MIC [13]: 16 µM (≈ 40.6 µg/mL)
MIC (Enterococcus faecium): 3.15 µM (≈ 8 µg/mL)
MIC [14]: 25.2 µM (≈ 64 µg/mL)
MIC (Staphylococcus aureus MR): 25.2 µM (≈ 64 µg/mL)
MIC [7]: 25.2 µM (≈ 64 µg/mL)
MIC [15]: 1 µM (≈ 2.54 µg/mL)
MIC [16]: 1.57 µM (≈ 4 µg/mL)
MIC [17]: 25.2 µM (≈ 64 µg/mL)
MIC [18]: 25.2 µM (≈ 64 µg/mL)
MIC (Escherichia coli NDM): ≥ 32 µM
MIC [19]: 3.15 µM (≈ 8 µg/mL)
MIC (Staphylococcus aureus): 6.3 µM (≈ 16 µg/mL)
SMILES: CC[C@H](C)[C@H](NC(=O)[C@H](CC(C)C)NC(=O)[C@H](CO)NC(=O)[C@@H](NC(=O)[C@H](CCC(N)=O)NC(=O)[C@H](Cc1ccc(O)cc1)NC(=O)[C@H](CCCN=C(N)N)NC(=O)[C@H](CCCN=C(N)N)NC(=O)[C@H](CCCN=C(N)N)NC(=O)[C@@H](NC(=O)[C@H](CO)NC(=O)[C@@H](NC(=O)[C@@H](N)[C@@H](C)O)[C@@H](C)O)[C@@H](C)CC)C(C)C)C(=O)N[C@@H](CCCN=C(N)N)C(=O)N[C@@H](CCCN=C(N)N)C(=O)N[C@@H](Cc1cnc[nH]1)C(=O)N[C@@H](CCCN=C(N)N)C(=O)NCC(=O)N[C@@H](CCCCN)C(=O)N[C@@H](CCCN=C(N)N)C(=O)O [TTSIRRRYQVSLIRRHRGKR]

MIC (Vibrio alginolyticus): 2.12 µM (≈ 3.9 µg/mL)
MIC (Escherichia coli): 2.12 µM (≈ 3.9 µg/mL)
MIC (Vibrio fluvialis): ≥ 34 µM
MIC (Streptococcus pyogenes): ≥ 34 µM
MIC (Aeromonas hydrophila): 2.12 µM (≈ 3.9 µg/mL)
MIC (Staphylococcus aureus): 34 µM (≈ 62.5 µg/mL)
SMILES: CC[C@H](C)[C@H](NC(=O)[C@H](CCCCN)NC(=O)[C@H](Cc1cnc[nH]1)NC(=O)[C@H](CC(C)C)NC(=O)[C@H](CC(C)C)NC(=O)[C@H](Cc1ccccc1)NC(=O)[C@H](CC(N)=O)NC(=O)[C@@H](N)C(C)C)C(=O)N[C@@H](Cc1ccc(O)cc1)C(=O)NCC(=O)N[C@@H](CC(N)=O)C(=O)N[C@H](C(=O)N[C@@H](CCCN=C(N)N)C(=O)N[C@@H](Cc1ccc(O)cc1)C(=O)N[C@@H](CO)C(=O)O)[C@@H](C)CC [VNFLLHKIYGNIRYS]
MIC (Vibrio parahaemolyticus): 17 µM (≈ 31.2 µg/mL)

MIC [20]: ≥ 51 µM
MIC (Escherichia coli K-12): ≥ 104 µM
MIC [21]: ≥ 52.2 µM
MIC [22]: ≥ 104 µM
MIC [23]: 26.1 µM (≈ 64 µg/mL)
MIC [24]: ≥ 52.2 µM
MIC [25]: ≥ 209 µM
MIC [26]: ≥ 52.2 µM
MIC (Escherichia coli): > 52.2 µM
MIC [27]: ≥ 52.2 µM
MIC (Campylobacter jejuni): ≥ 52.2 µM
MIC [28]: 26.1 µM (≈ 64 µg/mL)
MIC [7]: > 52.2 µM
MIC [29]: 209 µM (≈ 512 µg/mL)
MIC [30]: ≥ 52.2 µM
MIC [31]: ≥ 52.2 µM
MIC [32]: ≥ 52.2 µM
MIC [33]: ≥ 52.2 µM
MIC [34]: ≥ 209 µM
MIC [35]: ≥ 102 µM
MIC [1]: > 52.2 µM
MIC [36]: ≥ 52.2 µM
MIC [37]: > 52.2 µM
SMILES: CC[C@H](C)[C@H](NC(=O)[C@H](CO)NC(=O)[C@@H](N)CCCN=C(N)N)C(=O)N[C@H](C(=O)N[C@@H](CCCN=C(N)N)C(=O)N1CCC[C@H]1C(=O)N[C@H](C(=O)N[C@@H](CC(C)C)C(=O)N[C@H](C(=O)N[C@@H](CCCN=C(N)N)C(=O)N[C@@H](CCCN=C(N)N)C(=O)N[C@@H](CCCN=C(N)N)C(=O)N[C@@H](Cc1c[nH]c2ccccc12)C(=O)N[C@@H](CCCN=C(N)N)C(=O)N[C@H](C(=O)N[C@@H](CCCN=C(N)N)C(=O)N1CCC[C@H]1C(=O)N[C@H](C(=O)N[C@@H](Cc1ccccc1)C(=O)O)C(C)C)C(C)C)C(C)C)C(C)C)[C@@H](C)O [RSITRPVLVRRRWRVRPVF]

Source: DBAASP
